The values below come from patent publication US20250235437A1, “PROTEOLYSIS TARGETING CHIMERA (PROTAC) MOLECULE FOR DEGRADATION OF ENL AND CANCER THERAPY” (Baylor College of Medicine, priority 2022, published 2025).

The target of experiment [1] is T1, ENL (Homo sapiens, UniProt Q03111).
T1 construct: tested whether the compounds degrade ENL and AF9 in MV4;11 leukemia cells; endogenous in cells; host or cells: MV4;11; Molm-13
T1 sequence (Q03111 1-559): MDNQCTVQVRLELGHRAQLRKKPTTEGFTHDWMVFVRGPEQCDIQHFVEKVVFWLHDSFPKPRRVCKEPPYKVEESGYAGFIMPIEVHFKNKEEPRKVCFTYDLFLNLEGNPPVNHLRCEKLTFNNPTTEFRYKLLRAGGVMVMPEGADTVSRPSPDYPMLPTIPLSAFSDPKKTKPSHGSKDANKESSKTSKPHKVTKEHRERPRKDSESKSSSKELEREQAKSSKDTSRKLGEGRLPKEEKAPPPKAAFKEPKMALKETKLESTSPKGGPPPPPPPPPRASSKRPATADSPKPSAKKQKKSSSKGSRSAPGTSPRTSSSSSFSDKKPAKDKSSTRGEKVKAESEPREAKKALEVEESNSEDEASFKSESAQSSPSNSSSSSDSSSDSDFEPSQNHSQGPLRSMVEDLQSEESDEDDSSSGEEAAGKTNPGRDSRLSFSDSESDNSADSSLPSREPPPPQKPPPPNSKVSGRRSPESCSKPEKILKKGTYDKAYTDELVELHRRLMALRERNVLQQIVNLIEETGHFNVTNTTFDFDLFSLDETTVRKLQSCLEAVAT
Description: ENL degradation in MV4;11 cells (Western blot). In kind it is cell-based. To be noted: for DC50: read-out: DC50 (concentration at which a protein is reduced by 50%), ENL. The procedure:
Next, Applicant tested whether the compounds degrade ENL and AF9 in MV4;11 leukemia cells with the .MLL1-AF4 oncogene. Upon compound treatment for 24 h, the cells were washed, lysed, and the lysates subjected to SDS-PAGE (sodium dodecyl sulphate-polyacrylamide gel electrophoresis) followed by detection with Western blot.
(Immunoblotting shows a protein as a band on a membrane.)

Experiment [2] deals with Molm-13 cells. Description: Anti-proliferative activity, Molm-13 cells. In kind it is cell-based.
For experiment [3], the system named is blood and solid tumor cells. Nature of the experiment: Anti-proliferative activity, panel of blood and solid tumor cells. Type of experiment: cell-based.
For experiment [4], the system named is RPMI-8226 cells. Nature of the experiment: Anti-proliferative activity, RPMI-8226 cells. Type of experiment: cell-based.
In experiment [5] the test system is Hela cell. Conditions: Hela cells, footnote b: reported in Li, et al. J Hematol Oncol, 2022, read-out: Anti-proliferative activity EC50, Hela, cited from earlier work.
For experiment [6], the system named is MV4;11 cells. Nature of the experiment: Anti-proliferative activity, MV4;11 cells. Type of experiment: cell-based.
Experiment [7] relates to Hela cell. Nature of the experiment: Anti-proliferative activity, Hela cells. Type of experiment: cell-based. To be noted: Hela cells, read-out: Anti-proliferative activity EC50, Hela.
In experiment [8] the target is T1, ENL. Nature of the experiment: Rescue of compound 1-mediated ENL degradation in MV4;11 cells. Type of experiment: cell-based. Conditions: 2 h pre-treatment then co-treatment with compound 1 (500 nM) for 24 h.
For experiment [9], the system named is Molm-13 cells. Conditions: Molm13 cells, footnote b: reported in Li, et al. J Hematol Oncol, 2022; read-out: Anti-proliferative activity EC50, Molm13; cited from earlier work.
The test system of experiment [10] is MV4;11 cells. Conditions: footnote b: reported in Li, et al. J Hematol Oncol, 2022, read-out: Anti-proliferative activity EC50, MV4; cited from earlier work.
Experiment [11] has as its system RPMI-8226 cells. To be noted: footnote b: reported in Li, et al. J Hematol Oncol, 2022, read-out: Anti-proliferative activity EC50, RPMI-8226; cited from earlier work.
Experiment [12] deals with T1, ENL. Description: Nuclear and cytoplasmic ENL levels in MV4;11 cells, 4 days (Western blot). In kind it is cell-based. The source says: Upon treatment of MV4;11 cells with these compounds for 4 days, cytoplasmic and nuclear proteins were separated and subjected to SDS-PAGE/Western blot.
Experiment [13] deals with T2, ENL YEATS-H3K27ac interaction (Homo sapiens, UniProt Q03111).
T2 sequence (Q03111 1-138 limits assumed): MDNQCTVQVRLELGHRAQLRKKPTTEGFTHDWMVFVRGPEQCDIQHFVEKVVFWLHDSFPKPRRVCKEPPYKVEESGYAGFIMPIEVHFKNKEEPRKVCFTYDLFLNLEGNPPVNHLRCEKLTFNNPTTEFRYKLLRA
Description: ALPHA assay, inhibition of ENL YEATS-H3K27ac interaction. To be noted: read-out: IC50, inhibition of ENL YEATS-H3K27ac interaction.

[14] abbreviates: Molm13 cells, read-out: Anti-proliferative activity EC50, Molm13.
[15] abbreviates: MV4, 11 cells, read-out: Anti-proliferative activity EC50, MV4, 11.

Read-outs that look alike come from different tables or passages of the source.

For `C[C@H]1CCCN1Cc1nc2cc(NC(=O)c3ccc4c(cnn4CCCNc4cccc5c4C(=O)N(C4CCC(=O)NC4=O)C5=O)c3)ccc2[nH]1` (stereo partly drawn) [SYC-2552], the DC50 in [1] (24 h treatment) was 0.021 µM. The EC50 in [2] (setting [14]) came out at 2.5 ± 1.1 µM.
With `C[C@H]1CCCN1Cc1nc2cc(NC(=O)c3ccc4c(cnn4CCCCNC(=O)CC45CC6CC(CC(C6)C4)C5)c3)ccc2[nH]1` [Compound 4], the ENL reduction entry in experiment [1] (24 h, even at 5 μM) is reported as “did not reduce ENL”. For the same molecule, in [3], the “time to non-selective killing of cancerous cells” value is at most 3 days. The EC50 in experiment [3] (blood and solid tumor cells, range over cell lines, read-out: EC50, proliferation) was in the range of 1 to 3.8 µM.
Consider `C[C@H]1CCCN1Cc1nc2cc(NC(=O)c3ccc4c(cnn4CCCCNC(=O)CC45CC6CC(CC(C6)C4)C5)c3)ccc2[nH]1` [SYC-2523], for which the EC50 in [2] (setting [14]) is 0.98 ± 0.04 µM; in experiment [4] (3 days incubation), 1.4 ± 0.5 µM; in [5] (3 days incubation), 3.8 ± 1.2 µM.
Consider `C[C@H]1CCCN1Cc1nc2cc(NC(=O)c3ccc4c(cnn4CCCCCNc4cccc5c4C(=O)N(C4CCC(=O)NC4=O)C5=O)c3)ccc2[nH]1` (stereo partly drawn) [SYC-2553], for which the DC50 in experiment [1] (24 h treatment) stood at 0.0042 µM. For the same molecule, the EC50 worked out at 3.4 ± 0.4 µM in [2] (setting [14]), 8.3 ± 1.6 µM in experiment [6] (setting [15]) and 7.2 ± 0.35 µM in [4].
For `C[C@H]1CCCN1Cc1nc2cc(NC(=O)c3ccc4c(cnn4CCCNC(=O)CC45CC6CC(CC(C6)C4)C5)c3)ccc2[nH]1` [SYC-2558], the EC50 in [7] (3 days incubation) came to 2.5 ± 1 µM.
Take `CC(C)C[C@H](NC(=O)[C@H](Cc1ccccc1)NC(=O)c1cnccn1)B(O)O` [bortezomib]: in [8], the “effect on compound 1-mediated ENL degradation” value was “dose-dependently inhibit compound 1-mediated ENL degradation”.
Take `C[C@H]1CCCN1Cc1nc2cc(NC(=O)c3ccc4c(cnn4C)c3)ccc2[nH]1` [SGC-iMLLT, reference compound]: the activity against proliferation entry in [2] (Molm-13 cells) is given as “weak activity”. Moreover, the EC50 was 17 µM in experiment [9], above 50 µM in experiment [10], above 50 µM in experiment [11] and above 50 µM in [5].
Turning to `C[C@H]1CCCN1Cc1nc2cc(NC(=O)c3ccc4c(cnn4CCCCCCCNc4cccc5c4C(=O)N(C4CCC(=O)NC4=O)C5=O)c3)ccc2[nH]1` (stereo partly drawn) [SYC-2554], the figures for the EC50 in [2] (setting [14]), in experiment [6] (setting [15]) and in [4] were 4.4 ± 0.5 µM, 3.7 ± 1.6 µM and 6.4 ± 0.65 µM, respectively.
In the case of `O=C1CCC(N2C(=O)c3ccccc3C2=O)C(=O)N1` (stereo not drawn) [Thalidomide, thalidomide, reference compound], in experiment [8], the “effect on compound 1-mediated ENL degradation” value is “dose-dependently inhibit compound 1-mediated ENL degradation”. Also, in [12], the “ENL level in the nucleus” value is reported as “did not reduce”. Besides, the EC50 in experiment [2] (Homo sapiens, 168 h, Molm-13 cells, 7-day incubation, read-out: EC50, proliferation) is above 50 µM; in experiment [6] (Homo sapiens, 168 h, MV4;11 cells, 7-day incubation, read-out: EC50, proliferation), above 50 µM; in [9], above 50 µM; in experiment [10] it was above 50 µM; in [11] it was above 50 µM; in experiment [5] it was above 50 µM.
On to `C[C@H]1CCCN1Cc1nc2cc(NC(=O)c3ccc4c(cnn4CCCCCCNc4cccc5c4C(=O)N(C4CCC(=O)NC4=O)C5=O)c3)ccc2[nH]1` (stereo partly drawn) [Compound 2], for which the “Dmax (maximal degradation), ENL” value in [1] (24 h treatment) is reported as around 68%. In addition, the DC50 in experiment [1] (24 h treatment) is around 0.05 µM. The EC50 in experiment [4] is 6 ± 0.91 µM; in experiment [9] it was 0.49 µM; in experiment [10], 1.6 µM; in [5] it was above 50 µM. Besides, the IC50 in experiment [13] came out at 0.1 µM.
As to `C[C@H]1CCCN1Cc1nc2cc(NC(=O)c3ccc4c(cnn4CCCCCCCCCCCNc4cccc5c4C(=O)N(C4CCC(=O)NC4=O)C5=O)c3)ccc2[nH]1` (stereo partly drawn) [SYC-2557], the ENL reduction result in [1] (FIGS. 9A-9E) is on record as “did not reduce ENL”. The EC50 in [2] (setting [14]) was found to be 0.82 ± 0.2 µM; in experiment [6] (setting [15]), 0.94 ± 0.06 µM; in experiment [4] (6 days incubation), 5.5 µM.
For `C[C@H]1CCCN1Cc1nc2cc(NC(=O)c3ccc4c(cnn4CCCCCCCCNC(=O)CC45CC6CC(CC(C6)C4)C5)c3)ccc2[nH]1` [SYC-2521], the EC50 in [2] (setting [14]) came out at 1 ± 0.2 µM; in experiment [4] it was 2 ± 0.3 µM; in experiment [7] (3 days incubation), 2.5 ± 1.4 µM.
`C[C@H]1CCCN1Cc1nc2cc(NC(=O)c3ccc4c(cnn4CCCCNc4cccc5c4C(=O)N(C4CCC(=O)NC4=O)C5=O)c3)ccc2[nH]1` (stereo partly drawn) [Compound 3]: the “Dmax (maximal degradation), ENL” value in [1] (24 h treatment) is on record as 89%. Moreover, the “concentration at which ENL is almost depleted” value in experiment [1] (24 h treatment) is recorded as around 500 nM. Besides, the DC50 in [1] (24 h treatment) was 0.072 µM. In addition, the EC50 is 19 ± 3.8 µM in [4], above 50 µM in [7] (footnote letter missing), 2.1 µM in experiment [9] and 1.2 µM in experiment [10]. In addition, the half-maximal inhibitory concentration (IC50) in experiment [13] was 0.61 µM.
With `C[C@H]1CCCN1Cc1nc2cc(NC(=O)c3ccc4c(cnn4CCCCCCCCCNc4cccc5c4C(=O)N(C4CCC(=O)NC4=O)C5=O)c3)ccc2[nH]1` (stereo partly drawn) [SYC-2555], in experiment [1] (FIGS. 9A-9E), the ENL reduction entry is recorded as “did not reduce ENL”. The EC50 is 4.5 ± 0.6 µM in experiment [2] (setting [14]), 8.3 ± 0.8 µM in experiment [6] (setting [15]) and 7.9 ± 0.07 µM in [4].
As to `C[C@H]1CCCN1Cc1nc2cc(NC(=O)c3ccc4c(cnn4CCCCCCNC(=O)CC45CC6CC(CC(C6)C4)C5)c3)ccc2[nH]1` [SYC-2522], the EC50 in experiment [2] (setting [14]) stood at 1 ± 0.05 µM; in experiment [4] it was 0.68 ± 0.2 µM; in experiment [7] (3 days incubation) it was 3.2 ± 0.7 µM.
Turning to `C[C@H]1CCCN1Cc1nc2cc(NC(=O)c3ccc4c(cnn4CCCCCCCCCCNc4cccc5c4C(=O)N(C4CCC(=O)NC4=O)C5=O)c3)ccc2[nH]1` (stereo partly drawn) [SYC-2556], the ENL reduction entry in experiment [1] (FIGS. 9A-9E) is listed as “did not reduce ENL”. The values for the EC50 in experiment [2] (setting [14]), in [6] (setting [15]) and in [4] were 1.1 ± 0.3 µM, 8.4 ± 1.2 µM and 7.5 ± 0.19 µM, respectively.

Usually IC50 stands for the point on the concentration scale where inhibition reaches its midpoint.
